Patent US8013006B2
Where two headings read alike, the source gives them in different places.

Assays:
[1] = system: HCV replicon; assay: microbe, parasite or virus in culture; assay type: cell-based
[2] = system: wild-type poliovirus; assay type: cell-based; settings: Hela cells, MOI 0.1, one day; for WT-PV CPE (1 μM)*: 1 μM compound; for WT-PV CPE (10 μM)*: 10 μM compound; for WT-PV CPE (100 μM) *: 100 μM compound
[3] = system: cap-dependent translation; assay: Western blot of Fluc reporter protein in pLuc cells; assay type: cell-based, human; settings: 20 hours
[4] = Replicon IC50 values are determined by firefly luciferase signal, bicistronic replicon, 2 days, read-out: Replicon IC5Os
[5] = Hepatitis C virus, 48 h, read-out: Replicon IC5Os
[6] = Hepatitis C virus, 48 h, read-out: Replicon IC5Os μM

Row | Structure (SMILES) | melting point | IC50 [1, 6] | also measured
1 | COc1ccc(-n2cc(C#N)c3ccc(OC)cc32)cc1 [Compound 4] |  |  | IC50 [1, 4]: > 2 µM; WT-PV CPE (1 μM)* [2]: 1; WT-PV CPE (10 μM)* [2]: 2; WT-PV CPE (100 μM) * [2]: 3
2 | CCn1cc(C#N)c2ccc(OC(C)C)cc21 [Compound 10] |  |  | IC50 [1, 4]: > 2 µM; WT-PV CPE (1 μM)* [2]: 2; WT-PV CPE (10 μM)* [2]: 2; WT-PV CPE (100 μM) * [2]: 3
3 | CCn1c(-c2ccc(OC)cc2)c(C#N)c2ccc(OC)cc21 [Compound 19] |  |  | IC50 [1, 4]: > 2 µM; WT-PV CPE (1 μM)* [2]: 1; WT-PV CPE (10 μM)* [2]: 2; WT-PV CPE (100 μM) * [2]: 3
4 | COc1ccc2c(C#N)c(C)n(-c3ccc4c(c3)OCO4)c2c1 [Compound 24] |  |  | IC50 [1, 4]: 0.5 to 2 µM; WT-PV CPE (1 μM)* [2]: 2; WT-PV CPE (10 μM)* [2]: 2; WT-PV CPE (100 μM) * [2]: 3
5 | CCCCn1c(-c2ccc(NC(=O)OCCF)cc2)c(C#N)c2ccc(OC)cc21 [Compound 747] | 136 to 137 °C |  | IC50 [1, 5]: < 0.5 µM
6 | CCCCn1c(-c2ccc(NC(=O)NCC)cc2)c(C#N)c2ccc(OC)cc21 [Compound 748] | 186 to 188 °C |  | IC50 [1, 5]: < 0.5 µM
7 | CCCCn1c(-c2ccc(NC(=O)NCCC)cc2)c(C#N)c2ccc(OC)cc21 [Compound 749] | 176 to 178 °C |  | IC50 [1, 5]: < 0.5 µM
8 | CCCCNC(=O)Nc1ccc(-c2c(C#N)c3ccc(OC)cc3n2CCCC)cc1 [Compound 750] | 173 to 174 °C |  | IC50 [1, 5]: < 0.5 µM
9 | CCCCn1c(-c2ccc(NC(=O)NC(C)C)cc2)c(C#N)c2ccc(OC)cc21 [Compound 751] | 159 to 162 °C |  | IC50 [1, 5]: 0.5 to 2 µM
10 | CCn1c(-c2ccc3c(c2)N(S(C)(=O)=O)CC3)c(C#N)c2ccc(OC)cc21 [Compound 752] | 198 to 202 °C |  | IC50 [1, 5]: 0.5 to 2 µM
11 | CCn1c(-c2ccc3c(c2)N(S(=O)(=O)CC)CC3)c(C#N)c2ccc(OC)cc21 [Compound 753, 1′-ethanesulfonyl-1-ethyl-6-methoxy-2′,3′-dihydro-1H,1H′-[2,6′]biindolyl-3-carbonitrile] | 157 to 161 °C |  | IC50 [1, 5]: < 0.5 µM
12 | CCn1c(-c2ccc(N)cc2)c(C#N)c2ccc(OC(C)C)cc21 [Compound 758] | 149 to 153 °C |  | IC50 [1, 5]: < 0.5 µM
13 | CCn1c(-c2ccc(NC(=O)CCc3ccccc3)cc2)c(C#N)c2ccc(OC(C)C)cc21 [Compound 762] | 190 to 193 °C |  | IC50 [1, 5]: < 0.5 µM
14 | CCn1c(-c2ccc(NC(=O)c3ccccc3)cc2)c(C#N)c2ccc(OC(C)C)cc21 [Compound 763] | 209.2 to 209.7 °C |  | IC50 [1, 5]: < 0.5 µM
15 | CCn1c(-c2ccc(NC(=O)c3ccc(F)cc3)cc2)c(C#N)c2ccc(OC(C)C)cc21 [Compound 764] | 213.5 to 231.7 °C | < 0.5 µM | 
16 | CCOc1ccc2c(C#N)c(-c3ccc(NC(=O)NCCCl)cc3)n(CC)c2c1 [Compound 774] | 205 to 206 °C | 0.5 to 2 µM | 
17 | COc1ccc2c(C#N)c(-c3cccc(N4CCCS4(=O)=O)c3)n(C(C)C)c2c1 [Compound 784] | 245 to 246 °C | 0.5 to 2 µM | 
18 | CCCS(=O)(=O)Nc1ccc(-c2c(C#N)c3cc(OC)ccc3n2CC)cc1 [Compound 789] | 154 to 156 °C | < 0.5 µM | 

Row | Structure (SMILES) | melting point | IC50 [1, 6] | also measured
19 | CCn1c(-c2ccc(NS(=O)(=O)C3CC3)cc2)c(C#N)c2cc(OC)ccc21 [Compound 791] | 149 to 152 °C | < 0.5 µM | 
20 | CCn1c(-c2ccc(NC(=O)OC)cc2)c(C#N)c2cc(OC)ccc21 [Compound 792] | 182 to 185 °C | < 0.5 µM | 
21 | CCOC(=O)Nc1ccc(-c2c(C#N)c3cc(OC)ccc3n2CC)cc1 [Compound 793] | 154 to 155 °C | < 0.5 µM | 
22 | CCCOC(=O)Nc1ccc(-c2c(C#N)c3cc(OC)ccc3n2CC)cc1 [Compound 794] | 149 to 151 °C | < 0.5 µM | 
23 | CCn1c(-c2ccc(NC(=O)OC(C)C)cc2)c(C#N)c2cc(OC)ccc21 [Compound 795] | 183 to 185 °C | < 0.5 µM | 
24 | CCn1c(-c2ccc(NC(=O)C3CCC3)cc2)c(C#N)c2ccc(OC)cc21 [Compound 801] | 199 to 219 °C | < 0.5 µM | 
25 | CCn1c(-c2ccc(NC(=O)Cc3ccccc3)cc2)c(C#N)c2ccc(OC)cc21 [Compound 802] | 196 to 198 °C | 0.5 to 2 µM | 
26 | CCn1c(-c2ccc(N3CCCC3=O)cc2)c(C#N)c2ccc(OC(F)F)cc21 [Compound 807] | 171 to 172 °C | < 0.5 µM | 
27 | C=CCNC(=O)Nc1cccc(-c2c(C#N)c3ccc(OC)cc3n2Cc2ccccc2)c1 [Compound 818] | 158 to 159 °C | < 0.5 µM | 
28 | CC(C)OC(=O)Nc1ccc(-c2c(C#N)c3ccc(OC(F)F)cc3n2C2CCC2)cc1 [Compound 822] | 144 to 145 °C | 0.5 to 2 µM | 
29 | CCCn1c(-c2ccc(NS(=O)(=O)C3CC3)cc2)c(C#N)c2ccc(OC(F)F)cc21 [Compound 827] | 189 to 191 °C | < 0.5 µM | 
30 | CCOc1ccc(-c2c(C#N)c3ccc(NS(C)(=O)=O)cc3n2CC)cc1 [Compound 834] | 179 to 180 °C | 0.5 to 2 µM | 
31 | CCCn1c(-c2ccc(NC(=O)NCCc3ccccc3)cc2)c(C#N)c2ccc(OC)cc21 [Compound 848] | 193 to 194 °C | 0.5 to 2 µM | 
32 | CCCn1c(-c2ccc(NS(=O)(=O)CCCCl)cc2)c(C#N)c2ccc(OC)cc21 [Compound 850] | 179 to 180 °C | 0.5 to 2 µM | 
33 | CCCn1c(-c2ccc(NS(=O)(=O)C3CC3)cc2)c(C#N)c2ccc(OC)cc21 [Compound 851] | 186 to 187 °C | 0.5 to 2 µM | 
34 | CCn1c(-c2ccc(NC(=O)C3CCC3)cc2)c(C#N)c2cc(OC)ccc21 [Compound 859] | 191 to 192 °C | 0.5 to 2 µM | 
35 | COc1ccc(C[C@H](N)C(=O)N[C@H]2[C@@H](O)[C@H](n3cnc4c(N(C)C)ncnc43)O[C@@H]2CO)cc1 [puromycin] |  |  | luciferase reporter protein level (cap-dependent), Western blot [3]: inhibited
